# Legend:
# Rta PhoX1 = target: T1, Rta PhoX1 (Ramlibacter tataouinensis, UniProt F5Y472); experiment: p-nitrophenol release at […] nm, total soluble protein of expressing E. coli; format: biochemical; conditions: 50 mM Tris pH 8, 5 mM CaCl2, 5 mM MgCl2, 0.6 mM substrate
# T1 construct: gene Rta_14460; codon-optimised synthetic gene in pET-22b (MscI/BamHI), E. coli BL21(DE3); total soluble protein extract; precursor 643 aa, predicted Tat signal 51 aa; no precursor form seen on SDS-PAGE
# T1 sequence (F5Y472 52-643): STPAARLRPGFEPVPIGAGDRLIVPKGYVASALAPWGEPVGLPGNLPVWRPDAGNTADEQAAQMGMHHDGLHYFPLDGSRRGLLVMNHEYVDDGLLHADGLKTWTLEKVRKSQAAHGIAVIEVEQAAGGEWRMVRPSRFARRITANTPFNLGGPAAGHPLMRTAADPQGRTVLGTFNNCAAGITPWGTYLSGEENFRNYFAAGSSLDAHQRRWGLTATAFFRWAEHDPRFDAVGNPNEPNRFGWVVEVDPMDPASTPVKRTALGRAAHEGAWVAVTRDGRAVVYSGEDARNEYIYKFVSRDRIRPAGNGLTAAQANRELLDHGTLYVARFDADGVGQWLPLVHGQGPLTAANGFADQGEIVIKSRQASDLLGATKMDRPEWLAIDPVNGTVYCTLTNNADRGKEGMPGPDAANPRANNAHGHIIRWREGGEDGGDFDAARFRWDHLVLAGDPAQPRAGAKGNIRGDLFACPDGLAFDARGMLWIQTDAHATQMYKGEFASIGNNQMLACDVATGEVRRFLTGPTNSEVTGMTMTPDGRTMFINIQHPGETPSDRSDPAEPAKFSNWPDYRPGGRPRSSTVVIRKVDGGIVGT
# Rta PhoD = target: T2, Rta PhoD (Ramlibacter tataouinensis, UniProt F5XVP7); experiment: as above; format: biochemical; conditions: 50 mM Tris pH 8, 5 mM CaCl2, 5 mM MgCl2, 0.6 mM substrate
# T2 construct: codon-optimised synthetic gene in pET-22b (MscI/BamHI), E. coli BL21(DE3); total soluble protein extract; precursor 530 aa, predicted Tat signal 31 aa; no precursor form seen on SDS-PAGE
# T2 sequence (F5XVP7 32-530): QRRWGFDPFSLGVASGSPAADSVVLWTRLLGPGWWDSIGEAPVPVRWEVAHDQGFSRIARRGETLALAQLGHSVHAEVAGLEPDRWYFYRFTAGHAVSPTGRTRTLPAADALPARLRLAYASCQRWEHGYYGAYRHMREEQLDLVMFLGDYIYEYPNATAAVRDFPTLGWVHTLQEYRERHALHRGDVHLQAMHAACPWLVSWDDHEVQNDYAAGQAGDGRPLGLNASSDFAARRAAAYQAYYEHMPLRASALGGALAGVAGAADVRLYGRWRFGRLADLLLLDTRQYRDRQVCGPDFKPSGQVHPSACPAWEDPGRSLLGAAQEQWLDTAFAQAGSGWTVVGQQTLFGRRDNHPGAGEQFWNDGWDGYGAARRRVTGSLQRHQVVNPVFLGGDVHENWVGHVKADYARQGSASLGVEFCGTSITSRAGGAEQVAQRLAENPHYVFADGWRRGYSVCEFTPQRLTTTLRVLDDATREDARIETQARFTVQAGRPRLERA
SMILES,"p-nitrophenol release at 405 nm, total soluble protein of expressing E. coli (Rta PhoX1)","p-nitrophenol release at 405 nm, total soluble protein of expressing E. coli (Rta PhoD)"
"O=[N+]([O-])c1ccc(OP(=O)(O)Oc2ccc([N+](=O)[O-])cc2)cc1 [bis-pNPP, bis p-nitrophenylphosphate]","PhoD and PhoX1 hydrolyzed all the pNPP derivatives (pNPP, bis-pNPP, and TpNPP)",the activity of PhoD was higher for bis-pNPP diester
"O=[N+]([O-])c1ccc(OP(=O)(O)O)cc1 [pNPP, p-nitrophenylphosphate]",the activity of PhoX1 was higher for monoester,"PhoD and PhoX1 hydrolyzed all the pNPP derivatives (pNPP, bis-pNPP, and TpNPP)"
